Entries after “also recorded” stand apart in the source; their conditions may differ.

For experiment [1], the system named is hypoxia-induced PH in mice. Kind of experiment: Hypoxia-induced PH in mice: BAPN (prevention, rescue) or GW3965 (prevention). The experiment is classed as in vivo, mouse. The text has this: Finally, we wanted to determine if ApoE activity and/or LOX-dependent vascular stiffening were essential for ECM stiffening and PH development by miR-130/301. To assess the importance of ApoE activity, we attempted to prevent PH in mice via treatment with daily dietary ingestion of the liver-X nuclear hormone receptor (LXR) agonist GW3965, a known pharmacologic inducer of ApoE (Pencheva et al., 2014), simultaneously with hypoxia (FIGS. 62A-62H and 68A-H). Alternatively, experiments were designed to either prevent or reverse hypoxia-induced PH in mice via serial treatment with a pharmacologic inhibitor of LOX (Levental et al., 2009), β-aminopropionitrile BAPN, administered either simultaneously with hypoxia exposure (“prevention”) or after disease development (“reversal”) (FIGS. 62A-62H and 68A-H). In all cases of GW3965 or BAPN treatment, collagen crosslinking (FIG. 62D, 62H, FIG. 68) was inhibited, leading to decreased indices of PH, as reflected by RVSP (FIG. 62A, 62E), right ventricular remodeling (RV/LV+S ratio; FIG. 62B, 62F) and pulmonary arteriolar muscularization (FIG. 62C, 62G). GW3965 or BAPN treatment also reversed Pparγ and Lrp8 down-regulation (FIGS. 68A-68H) as well as reduced YAP nuclear localization (FIG. 62D, 62H) and YAP activation, as reflected by decreased Ctgf (FIGS. 68A-68H). Thus, considering the convergent data regarding pharmacologic manipulation of miR-130/301, APOE, and LOX, we can conclude that the YAP-TAZ-miR-130/301 circuit and its downstream network of targets act as master regulators of ECM remodeling in PH and represent a new set of targets for tailored molecular therapy in this disease.
To determine the effects of the LXR agonist GW3965 (Sigma-Aldrich) and consequent APOE induction on PH development, as previously described (Pencheva et al., 2014), mice were exposed to normobaric hypoxia and simultaneously assigned to control chow or chow supplemented with GW3965 (Research Diets, Inc.) at doses of 100 mg of drug per kilogram of mouse per day (based on average daily intake of […] of chow).
(§1) Picrosirius Red stain was achieved through the use of 5 μm paraffin sections stained with 0.1% Picrosirius Red (Direct Red80, Sigma-Aldrich) and counterstained with Weigert's hematoxylin to reveal fibrillar collagen. The sections were then serially imaged using with an analyzer and polarizer oriented parallel and orthogonal to each other. Microscope conditions (lamp brightness, condenser opening, objective, zoom, exposure time, and gain parameters) were constant throughout the imaging of all samples. A minimal threshold was set on appropriate control sections for each experiment in which only the light passing through the orthogonally-oriented polarizers representing fibrous structures (i.e., excluding residual light from the black background) was included. The threshold was maintained for all images across all conditions within each experiment. The area of the transferred regions that was covered by the thresholded light was calculated and at least 10 sections/vessel per condition were averaged together (Image J software).
This protocol was adapted from a previously published protocol (Hu et al.). Mouse lung was weighed, minced, and incubated in 0.5 M acetic acid at 4° C. After overnight digestion, the acetic acid-soluble and insoluble fractions were isolated by centrifugation. The soluble fraction was stored at −80° C., while the insoluble fraction was digested by overnight incubation in 6M hydrochloric acid at 85° C. Concentrations of soluble and insoluble (gelatinous) collagen fractions were determined using a Sircol Soluble Collagen Assay Kit (Biocolor) with a colorimetric reaction (measured at 550 nm) and a provided collagen reference standard curve.

The test system of experiment [2] is pulmonary tissue and pulmonary vasculature of mice. Kind of experiment: Forced expression of miR-130a in mouse lung (SU5416, intrapharyngeal mimic) with or without rosiglitazone or BAPN.
Protocol: In the presence of SU5416 (days of injection are highlighted in red) but in the absence of hypoxia, intrapharyngeal injection of wildtype mice was performed serially 4 times at 1 week intervals with 1 nmol of miR-NC or 1 nmol of miR-130a (days of administration are in black). During this period, mice were treated daily by oral gavage with 20 mg/kg of rosiglitazone or vehicle. At day 25, echocardiography and right heart catheterization was performed followed by euthanasia and blood/tissue sampling.
Eight-week-old mice (C57Bl6) were injected with SU5416 weekly (20 mg/kg/dose; Sigma-Aldrich), accompanied by 4 intrapharyngeal injections (once by week) of 1 nmol of miR-control (pre-miR-NC) or miR-130a (pre-miR-130a) mixed in 100 uL PBS solution containing 5% Lipofectamine 2000 (Life Technologies). Three days after the last injection, right heart catheterization was performed as previously described (9), followed by harvest of lung tissue for RNA extraction or paraffin embedding, as described above. Rosiglitazone (Cayman Chemicals) was dissolved in 0.25% carboxymethyl cellulose medium viscosity aqueous solution. This rosiglitazone solution versus vehicle control was delivered daily (20 mg/kg/day) by oral gavage to mice for 3 weeks.
After physiological measurements, blood was extracted by cardiac puncture for future analyses (hematocrit, plasma extraction). By direct right ventricular puncture, the pulmonary vessels were gently flushed with 1 cc of saline to remove the majority of blood cells, prior to harvesting cardiopulmonary tissue. The heart was removed, followed by dissection and weighing of the right ventricle (RV) and of the left ventricle+septum (LV+S). Organs were then harvested for histological preparation or flash frozen in liquid N2 for subsequent homogenization and extraction of RNA and/or protein. To further process lung tissue specifically, prior to excision, lungs were flushed with PBS at constant low pressure (˜10 mmHg) via right ventricular cannulation, followed by tracheal inflation of the left lung with 10% neutral-buffered formalin (Sigma-Aldrich) at a pressure of −20 cm H2O. After excision and 16 hours of fixation in 10% neutral-buffered formalin at 25° C., lung tissues were paraffin-embedded via an ethanol-xylene dehydration series, before being sliced into 5 μm sections (Hypercenter XP System and Embedding Center, Shandon).
Lung sections (5 μm) were deparaffinized and high temperature antigen retrieval was performed followed by blocking in TBS/BSA 5%, 10% goat serum and exposure to primary antibody and biotinylated secondary antibody (Vectastain ABC kit, Vector Labs). In most cases, color development was achieved by adding streptavidin-biotinylated alkaline phosphatase complex (Vector Labs) followed by Vector Red alkaline phosphatase substrate solution (Vector Labs). Levamisole was added to block endogenous alkaline phosphatase activity (Vector Labs). Pictures were obtained using an Olympus Bx51 microscope (40× objective). Small pulmonary vessels (<100 μm diameter) present in a given tissue section (>10 vessels per section) that were not associated with bronchial airways were selected for analysis (N>5 animals per group). Intensity of staining was quantified using ImageJ software (NIH). Degree of pulmonary arteriolar muscularization was assessed in paraffin-embedded lung sections stained for α-SMA by calculation of the proportion of fully and partially muscularized peripheral (<100 μm diameter) pulmonary arterioles to total peripheral pulmonary arterioles, as previously described (29). Medial thickness was also measured in α-SMA stained vessels (<100 μm diameter) using ImageJ software (NIH) and expressed as arbitrary units. All measurements were performed blinded to condition.
The test system of experiment [3] is PAAFs. Kind of experiment: PAAFs in soft or stiff matrix: fibrotic gene expression, immunoblot, collagen secretion. The experiment is classed as cell-based, human. As to the method: Cell Culture and Reagents: Primary human pulmonary arterial adventitial fibroblast cells (PAAFs) were purchased and propagated in FGM cell culture media (Lonza). Experiments were performed at passages 3 to 6. Primary human pulmonary fibroblast cells (PFs) were purchased and propagated in FGM cell culture media (Lonza). Primary human pulmonary arterial endothelial cells (PAECs) were purchased and propagated in EGM-2 cell culture media (Lonza). Experiments were performed at passages 3 to 6. Primary human pulmonary arterial smooth muscle cells (PASMCs) were purchased and propagated in SmGM-2 cell culture media (Lonza). Experiments were performed at passages 3 to 9. HEK293T cells (American Type Culture Collection) were used and cultivated in DMEM containing 10% fetal bovine serum (FBS). Cells were propagated in coated collagen plastic (50 ug/mL) at 37° C. in a humidified 5% CO2 atmosphere. Collagen-coated hydrogel were purchased.
3D cell culture: Protocol was adapted from previously published protocol (Aragona M et al, 2013 Cell). Cells were embedded in a mixture of Growth Factor Reduced Matrigel (BD Biosciences) and Collagen-I (BD Biosciencres). Collagen-I solution was neutralized on ice with 0.1M NaOH in PBS and adjusted with 0.1N HCl to bring the pH of the solution to 7.5. The Collagen-I solution was then mixed on ice with Matrigel to obtain a final concentration of 1.2 mg/ml (soft matrices) or 3 mg/ml (stiff matrices). Cells were trypsinized, counted, resuspended in growth medium; then, 1 volume of cells was mixed with 1 volume of the ECM mix. 6-well plated were precoated with 1 ml of cellfree 50% medium/50% ECM, and left in the incubator until gelled; then, cells were seeded in drop on top of the pregelled ECM. After gelling, wells were supplemented with normal growth medium, which was changed every 2 days during the experiments.
Oligonucleotides and Transfection: Pre-miRNA oligonucleotides (pre-miR-130a, negative control pre-miR-NC1 and premiR-NC2) and custom designed tiny LNA oligonucleotides (tiny-130: 5′-[…]-3′ (SEQ ID NO: 52), and tiny-NC 5′-[…]-3′ (SEQ ID NO: 54)) were purchased from Life Technologies/Ambion and Exiqon, respectively. siRNAs for PPARγ and OCT4/POU5F1 were purchased from Santa Cruz Biotechnology. siRNA for TIMP2 was purchased from Life Technologies. On Target Plus siRNAs for YAP1, TAZ (WWTR1), LRP8 and scrambled control were purchased from ThermoScientific/Dhermacon. PAAF, PF, PAEC and PASMC were plated in collagen-coated dish (50 ug/mL) and transfected 24 h later at 70-80% confluence using pre-miRNA (5 nM), tiny-LNA (20 nM) or siRNA (25 nM) and Lipofectamine 2000 reagent (Life Technologies), according to the manufacturers' instructions. 8 hours after transfection cells were trypsinized and re-plated in the different hydrogel/3D-matrix.
Primary human pulmonary arterial adventitial fibroblast cells (PAAFs) were purchased (ScienCell Research Laboratories) and grown in FGM cell culture media (Lonza). Experiments were performed at passages 3 to 6. Primary human pulmonary arterial endothelial cells (PAECs) were grown in EGM-2 cell culture media (Lonza), and experiments were performed at passages 3 to 6. Primary human pulmonary arterial smooth muscle cells (PASMCs) were cultured in SmGM-2 cell culture media (Lonza), and experiments were performed at passages 3 to 9. HEK293T cells (American Type Culture Collection) were cultivated in DMEM containing 10% fetal bovine serum (FBS). […]
(In general: A western blot detects proteins with antibodies after separation by electrophoresis.)

Experiment [4] deals with PAAFs. Briefly: ECM remodeling experiment (naïve PAAFs plated on remodeled ECM). The experiment is classed as cell-based, human. As to the method:
After the different treatment cells were fixed with PBS/PFA 4% for 10 min and permeabilized with PBS/Triton 100×0.1% for 10 min. Then cells were incubated with anti-YAP1 (#4912; 1/100; Cell signaling) at 4° C. overnight. Secondary antibodies coupled with Alexa-594 (Life Technologies) were used at 1:500. Nuclei were counterstained with DAPI (Sigma).
Following treatment, PAAFs were plated atop soft matrices (see below) in normal growth medium supplemented with 0.5% FBS. After three days, 10 ug/mL of puromycin was added to the growth medium for 48 hours to detach the cells from the matrix. Matrices were washed 3 times (PBS). Naïve PAAFs were then plated on top of these matrices supplemented with normal growth medium 0.5% FBS or harvested for assessment of collagen crosslinking (Picrosirius Red stain). Sixteen hours later, cells were harvested for immunofluorescence experiments or RNA extraction.
as §1

The mark [5] stands for this setting: rosiglitazone or BAPN on top of miR-130a.

`N#CCCN` [BAPN, β-aminopropionitrile]: the perivascular collagen crosslinking result in experiment [1] (Picrosirius Red) is given as “inhibited; also recorded: decreased”. Also, the “Ctgf, collagen isoforms, and Lox in lung” value in experiment [1] (RT-qPCR) is reported as “blunted”. Moreover, in experiment [1] (Sircol assay), the “whole lung collagen content and crosslinked collagen” value is “normalized by BAPN rescue treatment, and kept at baseline by preventative BAPN treatment; also recorded: nearly normalized by BAPN rescue treatment and largely maintained at baseline by BAPN prevention treatment”. For the same compound, in experiment [1] (hypoxic mice), the arteriolar muscularization entry is “decreased; also recorded: both prevented and reversed”; the “right ventricular hypertrophy (Fulton index, RV/LV+S)” value was “decreased; also recorded: both prevented and reversed”. In experiment [1] (hypoxic mice, BAPN prevention and rescue, GW3965 100 mg/kg/day in chow), the RVSP result is “decreased; also recorded: both prevented and reversed”. For the same compound, in experiment [1] (in situ staining), the “hypoxia mediated decreases of Lrp8 and Pparγ” value was “reversed; also recorded: either prevented or rescued”; the “hypoxia-mediated increases of α-SMA and YAP” value is given as “reduced; also recorded: blunted”. Besides, in experiment [2] (BAPN 30 mg/kg/day, Picrosirius Red and in situ staining), the “miR-130a-mediated changes in collagen, α-SMA, YAP staining and perivascular collagen crosslinking” value is listed as “decrease; also recorded: blunted”. In addition, the “YAP activation and downstream PH manifestations” value in experiment [2] (BAPN in miR-130-exposed mice) is on record as “reversed”. Besides, the “Ctgf, collagen isoforms and Lox expression in lung” value in experiment [2] (RT-qPCR, BAPN on top of miR-130a) is given as “temper; also recorded: blunted”. In experiment [2] (SU5416 mice, miR-130a 1 nmol x4, rosiglitazone 20 mg/kg daily oral or BAPN 30 mg/kg/day on top of miR-130a), the “right ventricular systolic pressure (RVSP)” value is reported as “lessened”. For the same compound, the “total (soluble) collagen and crosslinked (insoluble) collagen in whole lung” value in experiment [2] (Sircol / biochemical analysis, BAPN on top of miR-130a) was “reversed; also recorded: decreased”. For the same compound, in experiment [2] (setting [5]), the “percentage of muscularized small pulmonary arterioles” value was “lessened” and the “right ventricular remodeling, RV/(LV+S) mass ratio” value was “lessened”.

Turning to “ApoE: Recombinant ApoE (PeproTech) used at 5 μM in growth media”, the “collagen content of conditioned media (collagen secretion)” value in experiment [3] (PAAFs) is “disrupted; also recorded: reversed”. Besides, in experiment [3] (PAAFs exposed to exogenous ApoE), the “miR-130a-induced up-regulation of collagen, CTGF, and LOX” value is reported as “resistant”. Further, the “collagen crosslinking of remodeled ECM” value in experiment [4] (Picrosirius Red) is recorded as “reversed”. In experiment [4] (RT-qPCR), the “collagen, LOX, CTGF, and POU5F1/OCT4 in naïve cells plated on remodeled ECM” value is “negligible alterations”; the “miR-130/301 in naïve cells plated on remodeled ECM” value was “reversed”.

The values above are taken from patent US20170226507A1, “COORDINATE CONTROL OF PATHOGENIC SIGNALING BY THE MIR-130/301 FAMILY IN PULMONARY HYPERTENSION AND FIBROPROLIFERATIVE DISEASES” (The Brigham and Women's Hospital, Inc., priority 2014, published 2017).
